From patent US20110105623A1 (Biogenic Innovations, LLC, priority 2009, published 2011)

Experiments:
[1] = tested on: Streptococcus Pneumonia (#10341); assay: Bacterial viability by bioluminescent ATP assay
[2] = tested on: Streptococcus Pyogenes (Lancefield group A, #10096); assay: Bacterial viability by bioluminescent ATP assay

Compound	IC50 [1]	reduces viability by ([1]; 5% DMSO)	IC50 [2]	Viability of S. pyogenes ([2]; DMSO Concentration 0.31)	Viability of S. pyogenes ([2]; DMSO Concentration 0.63)	Viability of S. pyogenes ([2]; DMSO Concentration 1.25)	Viability of S. pyogenes ([2]; DMSO Concentration 2.50)	S. pyogenes viability ([2]; DMSO […], MSM 0%)	S. pneumonia viability (%) ([1]; 25 μg/L penicillin alone)	reduced viability by ([1]; 25 μg/L penicillin alone)	S. pneumonia viability (%) ([1]; 50 μg/L Penicillin alone)	S. pneumonia viability (%) ([1]; 100 μg/L Penicillin alone)	S. pneumonia viability ([1]; Penicillin 100 μg/L, MSM 0%)
C[S+](C)[O-] [DMSO, Dimethyl sulfoxide]	12.86%	approximately 25%	9.07%	100%	100%	100%	100%	100%	–	–	–	–	–
Penicillin	–	–	15.25 µg/L	–	–	–	–	–	79.82%	approximately 21%	42.70%	40.93%	40.93%
